Laboratory results taken from patent US11596623B2, “Methods for treating virus infection or proliferation” (HOWARD UNIVERSITY, priority 2018, dated 2023).

Legend:
[1] = target: T1, RACK1A Y248 phosphorylation (Arabidopsis thaliana, UniProt O24456); assay: ABA-induced RACK1A Y248 phosphorylation in seedlings, western blot; assay type: in vivo; conditions: 10 μM ABA, 12 hours, one-week old seedlings
T1 construct: from tissue; host or cells: Arabidopsis seedlings or plants (wild type); lysates
Procedure: One-week old Arabidopsis seedlings were treated with 10 μM of stress hormone Abscisic acid (ABA) in the presence/absence of the inhibitor compounds for 12 hours in a growth chamber (overnight) at 22° C. Lysates were probed with an antibody raised to detect phosphorylated Y248 residue of RACK1A protein in Arabidopsis. Lysates from rack1a-1 knock-out mutant seedlings grown and treated similarly as the wild-type seedlings were used as a negative control. The compounds were dissolved in DMSO (D) and ABA was dissolved in methanol (M).
Proteins were separated by SDS-PAGE (25 μg loaded in each lane), transferred to nitrocellulose membranes (Amersham Inc., Piscataway, N.J., USA), and blocked with 5% nonfat milk for 60 min at room temperature. Membranes were incubated overnight at 4° C. with primary antibody, followed by incubation with a horseradish peroxidase-coupled secondary antibody and detection with enhanced chemiluminescence (Pierce, Rockford, Ill., USA), according to standard methods. Membranes were stripped with stripping buffer (100 mM 2-mercaptoethanol, 2% SDS, 62.5 mM Tris-HCl, pH 6.8), washed with PBS-0.1% Tween-20, and used to detect additional proteins. For Arabidopsis lysates one-week old seedlings were treated with 10 uM of ABA in the presence/absence of the inhibitor compounds for 12 hours in a growth chamber (overnight) at 22° C. mostly in the dark. […]

HEp-2 cells = assay: Trypan blue exclusion cell viability; assay type: cell-based; conditions: 24-hour treatment
Procedure: In order to assess whether the compounds are producing any toxicity that can led to the cell deaths, we evaluated the cell viability by the trypan blue exclusion method. As long-term inhibition of RACK1 expression has been reported to cell cycle arrest, we limited our experimental treatments to 24 h and evaluated the cell viability of almost full confluent cells after 24 h of compound treatment.
In table 2, the viability of cells was measured with Trypan blue exclusion assay in a Cellometer (Nexcelom, Lawrence, Mass.). The percentage survival of the compound treated cells was evaluated along with the DMSO treated cells. The values represent the mean±SE of three separate well based replicates.

T1 sequence (O24456 whole entry): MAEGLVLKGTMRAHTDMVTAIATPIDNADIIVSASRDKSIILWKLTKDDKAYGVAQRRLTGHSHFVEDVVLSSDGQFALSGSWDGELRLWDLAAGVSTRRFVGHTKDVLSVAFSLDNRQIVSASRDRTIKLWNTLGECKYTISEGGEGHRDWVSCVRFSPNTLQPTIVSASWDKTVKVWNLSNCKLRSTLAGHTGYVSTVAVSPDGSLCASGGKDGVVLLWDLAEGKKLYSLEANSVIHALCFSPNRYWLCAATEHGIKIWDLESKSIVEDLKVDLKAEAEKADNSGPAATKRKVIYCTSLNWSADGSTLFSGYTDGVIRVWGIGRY

In the case of Nn1c(S)nnc1-c1cc(Cl)cc(Cl)c1 [SD29-14], the “ABA-induced RACK1A Y248 phosphorylation” value [1] is reported as “prevented the ABA-induced Y248 phosphorylation”, the “HEp-2 Cell viability, Mean” value (HEp-2 cells; 10 μM) is reported as 97.5% and the “HEp-2 Cell viability, Mean” value (HEp-2 cells; 100 μM) is reported as 93.7%.

For Nn1c(S)nnc1-c1ccc(F)cc1 [SD-29], the “ABA-induced RACK1A Y248 phosphorylation” value [1] was “prevented the ABA-induced Y248 phosphorylation”, the “HEp-2 Cell viability, Mean” value (HEp-2 cells; 10 μM) was 94.0% and the “HEp-2 Cell viability, Mean” value (HEp-2 cells; 100 μM) was 92.7%.
